Experimental data from patent publication US20090220528A1, “Stimulation of Toll-Like Receptors on T Cells” (THE TRUSTEES OF THE UNIVERISTY OF PENNSYLVANIA CNETER FOR …, priority 2005, published 2009).

Experiments:
Format in all cases: cell-based, mouse
activated CD4+ T cells [1] = experiment: Effect of signaling inhibitors on TLR ligand-mediated survival; conditions: for effect on poly(I:C)- or CpG DNA-enhanced activated CD4+ T cell survival: dose dependent (FIG. 4A)
Description: TLR ligands used in all experiments were dissolved in PBS except for PGN, which was solubilized in PBS with 0.02% ethanol. SB203580, U0126, NEMO-binding domain peptide (NBD), and NBD-C were all dissolved in DMSO and purchased from Calbiochem (La Jolla, Calif.).
Therefore, the next set of experiments were designed to assess whether MAPK p38 or ERK 1/2 activation is necessary for TLR ligand-mediated survival in activated CD4^+ T cells. The ERK1/2 activation inhibitor U0126 or the MAPK p38 inhibitor SB203580 was added to TLR ligand-treated activated CD4^+ T cells and viability was assessed.

activated CD4+ T cells [2] = experiment: Survival of activated CD4+ T cells treated with TLR ligands (7-AAD/annexin exclusion)
Description: All CD4^+ T cell activation was conducted in complete culture medium composed of RPMI 1640 (Life Technologies, Grand Island, N.Y.), 1.5 μM 2-ME (Sigma-Aldrich, St. Louis, Mo.), 50 μg/ml gentamicin (Life Technologies), and 10% FCS (Mediatech, Washington, D.C.) at 37° C. in 5% CO2. Purified CD4^+ T cells from either BALB/c, MyD88^−/−, or MyD88^+/+ wild-type control littermates were activated on 24-well plates (Costar, Cambridge, Mass.) coated with 1.0 μg/ml CD3ε monoclonal antibody (2C11; BD Biosciences) and 1.0 μg/ml CD28 monoclonal antibody (37.51; BD Biosciences) for 16 hours. In experiments with DO11.10 mice, 1 μg/ml of pOVA, a peptide derived from chicken albumin amino acid residues […] was added to 2×10^6/ml erythrocyte-depleted splenocyte and lymph node cell pools for 16 hours. Following pOVA-induced activation, CD4^+ T cell APC complexes were disrupted with 5 mM EDTA/PBS for 10 minutes at 25° C., washed twice in PBS, and purified with magnetic beads using the MACS CD4^+ T cell isolation kit as described elsewhere herein. Purity of activated DO11.10 CD4^+ T cells exceeded 96%. As described elsewhere herein, the remainder of the contaminants by FACS analysis were CD8^+ T cells, with APCs at <0.1% by RT-PCR.
Following activation, purified CD4^+ T cells were washed twice in PBS and replated in culture medium at 10^6/ml. Cultures were left untreated or treated with either TLR ligands and/or inhibitors for indicated times and concentrations. Following incubation, CD4^+ T cells were washed twice in PBS/2% FBS and stained with CD4-allophycocyanin monoclonal antibody and 7-aminoactinomycin D (7-AAD; BD PharMingen) or annexin (BD PharMingen) and survival was assessed by exclusion of either of these two stains. For absolute live cell counts 50,000 CD45.1^+ splenocytes labeled with anti-CD45.1-PE monoclonal antibody (A20; BD PharMingen) were also added to stained CD4^+ T cell sample FACS tubes just before FACS analysis. Live CD4^+ T cell counts were calculated by taking the ratio of the number of CD4^+CD45.1^−7-ADD^− events collected to the number CD45.1^+ events collected and multiplying by 50,000. Proliferation was measured by CFSE dye dilution as previously described (Wells et al., 1997 J. Clin. Invest. 100:3173).
TLR ligands directly promote the survival of several cell types including neutrophils, DC, and B cells (Lundqvist et al., 2002, Cancer Immunol. Immunother. 51:139; Sabroe et al., 2003, J. Immunol. 170:5268; Grillot et al., 1996, J. Exp. Med. 183:381; Grillot et al., 1996, J. Exp. Med. 183:381). Since it was observed that activated CD4^+ T cells also express TLRs and signal in response to TLR ligands, the next set of experiments were designed to assess whether TLR ligands could directly enhance survival of these cells. DO11.10 CD4^+ T cells, that encode a transgenic TCR specific for a peptide derived from chicken OVA (pOVA), were activated with pOVA-pulsed APCs for 16 hours ex vivo, purified by magnetic beads to remove all non-CD4^+ T cells, and replated in unsupplemented culture medium in the absence or presence of TLR ligands. Survival was then assessed 72 hours following activation (FIG. 3A). Poly(I:C) or CpG DNA induced increases of activated CD4^+ T cell survival from 38% to 71 and 73%, respectively.

[3] = tested on: Foxp3+GFP+ and Foxp3-GFP- T cells; experiment: Foxp3 expression (GFP reporter) and IL-6 production in Foxp3+ and Foxp3- T cells under stimulation; conditions: stimulation with anti-CD3 and anti-CD28 antibodies and TGF-b, with additions (FIG. 22)
Description: In order to study the effect of stimulation conditions on Foxp3 expression, T cells were from mice having a reporter construct introduced into the FOXP3 locus (Betteli et al., 2006, Nature 441:235-238) by sorting cells based on the GFP-reporter construct. The reporter construct expresses both Fox3p and the fluorescent protein GFP. T cells that are Foxp3^− (i.e. GFP^−) and T cells that are Foxp3^+ (i.e. GFP^+) were isolated (FIG. 21A). Foxp3 expression was then assessed under different stimulation conditions, […]

Molecule | effect on poly(I:C)- or CpG DNA-enhanced activated CD4+ T cell survival (activated CD4+ T cells [1]) | Foxp3 expression in Foxp3-GFP- cells (non-regulatory T cells) [3] | also measured
C[S+]([O-])c1ccc(-c2nc(-c3ccncc3)c(-c3ccc(F)cc3)[nH]2)cc1 (stereo not shown) [SB203580] | neither U0126 or SB203580 treatment decreased |  | 
N#CC(=C(/N)Sc1ccccc1N)/C(C#N)=C(\N)Sc1ccccc1N [U0126] | neither U0126 or SB203580 treatment decreased |  | overall survival rates of TLR-treated activated CD4+ T cells (activated CD4+ T cells [1]; concentration of 10 μM): small increase
IFN-α |  |  | activated CD4+ T cell survival (activated CD4+ T cells [2]; 72 hours following activation, DO11.10 CD4+ T cells activated with pOVA-pulsed APCs, purified, untreated 38% (FIG. 3A)): 67%
IL-6: cytokine added to the stimulation conditions |  | blocked the induction of Foxp3 | 
TGF-b |  | promoted Foxp3 expression | 
poly(C) |  |  | effect on activated CD4+ T cell survival (dose response) (activated CD4+ T cells [2]; FIG. 3B, purified activated CD4+ T cells): no significant effect
